Our source for the Ratio and Activity values is ChEMBL document CHEMBL4024707, “Using gene expression database to uncover biology functions of 1,4-disubstituted 1,2,3-triazole analogues synthesized via a copper (I)-catalyzed reaction” (Eur J Med Chem, 2017).

Assay [1] has as its target Glycogen synthase kinase-3 alpha (Homo sapiens) (UniProt P49840). As to the kind of experiment: Inhibition of GSK3alpha phosphorylation at Ser21 in human Hep3B cells assessed as ratio of phosphorylated […] to beta-actin level at 10 uM after 48 hrs by Western blot analysis. Type of assay: cell-based. In general terms: Immunoblotting shows a protein as a band on a membrane.

Assay [2] relates to Hep 3B2. As to the kind of experiment: Cell cycle arrest in human Hep3B cells assessed as accumulation at G0/G1 phase at 10 uM after 48 hrs by propidium iodide staining based flow cytometry (reference value: 39.7 to 40.4%). Type of assay: functional. (In general: In flow cytometry, cells or beads pass a laser one at a time.)
The test system of assay [3] is Hep 3B2. Put plainly: Cell cycle arrest in human Hep3B cells assessed as accumulation at G0/G1 phase at 40 uM after 24 hrs by propidium iodide staining based flow cytometry (reference value: 36.3 to 39.0%). It is filed as functional.

Glycogen synthase kinase-3 alpha (Homo sapiens), sequence (P49840 2-483 limits assumed): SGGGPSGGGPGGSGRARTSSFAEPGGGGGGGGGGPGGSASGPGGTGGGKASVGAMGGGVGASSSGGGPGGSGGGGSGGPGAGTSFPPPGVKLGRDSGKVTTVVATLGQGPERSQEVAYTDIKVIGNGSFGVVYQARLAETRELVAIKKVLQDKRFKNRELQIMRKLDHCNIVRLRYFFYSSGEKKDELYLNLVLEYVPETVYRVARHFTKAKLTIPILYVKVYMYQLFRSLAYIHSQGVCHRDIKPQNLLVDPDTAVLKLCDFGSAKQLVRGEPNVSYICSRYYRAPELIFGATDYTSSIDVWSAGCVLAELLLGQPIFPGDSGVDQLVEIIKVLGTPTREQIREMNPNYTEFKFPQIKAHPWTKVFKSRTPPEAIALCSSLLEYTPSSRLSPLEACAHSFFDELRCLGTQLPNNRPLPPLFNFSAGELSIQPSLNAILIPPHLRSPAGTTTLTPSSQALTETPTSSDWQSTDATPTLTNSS

Take `O=C1COc2ccccc2N1Cc1cn(CCC2OCCO2)nn1`: the Ratio in assay [1] came out at 0.9.

Turning to `COc1ccc(CNC(=O)Nc2ncc([N+](=O)[O-])s2)cc1`, the Activity with Hep 3B2 [2] is listed as 39.4%; in the assay on Hep 3B2 [3] it was 35%.
